Laboratory results: PMC9026428, “New Peptide Based Fluconazole Conjugates with Expanded Molecular Targets” (Pharmaceutics, 2022)
Values after ≈ are worked out from the molar mass of the structure shown. Non-standard residues stand in square brackets, D forms with d. Residues, ends and D or L forms follow the SMILES beside them. Nle = CCCC[C@H](N)C(=O)O

Assays:
[1] = test system: C. albicans ATCC 10231; conditions: C. albicans ATCC 10231, RPMI-1640, 200 – 0.4 μg/mL range
Description: (§1) The selective activities of the FLC-conjugates were calculated according to the following formula
(§2) (1 picture or pasted object on this page, not shown here)

[2] = test system: C. albicans SC5314; conditions: C. albicans SC5314, RPMI-1640, 200 – 0.4 μg/mL range
Description: as §1, §2

[3] = test system: C. albicans opt1-opt5Δptr2Δptr22Δ; conditions: RPMI-1640, 200 – 0.4 μg/mL range
Description: as §1, §2

[4] = test system: C. glabrata DSM 11226; conditions: C. glabrata DSM 11226, RPMI-1640, 200 – 0.4 μg/mL range
Description: as §1, §2

[5] = test system: C. krusei DSM 6128; conditions: C. krusei DSM 6128, RPMI-1640, 200 – 0.4 μg/mL range
Description: as §1, §2

[6] = test system: C. parapsilosis DSM 5784; conditions: C. parapsilosis DSM 5784, RPMI-1640, 200 – 0.4 μg/mL range
Description: as §1, §2

[7] = test system: C. tropicalis (clinical); conditions: RPMI-1640, 200 – 0.4 μg/mL range
Description: as §1, §2

SMILES: CC[C@H](C)[C@H](NC(=O)[C@H](CCCCN)NC(=O)[C@H](CCCCN)NC(=O)[C@H](C)NC(=O)[C@H](CC(C)C)NC(=O)[C@H](C)NC(=O)[C@H](C)NC(=O)[C@H](CC(C)C)NC(=O)[C@H](C)NC(=O)[C@H](CCCCN)NC(=O)[C@H](CC(C)C)NC(=O)[C@H](CC(N)=O)NC(=O)[C@@H](NC(=O)[C@H](CCCCN)NC(=O)CNC(=O)[C@H](CC(C)C)NC(=O)[C@H](CC(C)C)NC(=O)[C@H](Cc1ccc(O)cc1)NC(=O)CNC(=O)[C@H](C)N)[C@@H](C)CC)C(=O)N[C@@H](CC(C)C)C(N)=O [TP10-NH2]
- MIC50 [1]: 200 mg/L (≈ 91.7 µM)
- MIC90 [1]: 200 mg/L (≈ 91.7 µM)
- MIC50 [2]: 50 mg/L (≈ 22.9 µM)
- MIC90 [2]: 50 mg/L (≈ 22.9 µM)
- MIC50 [3]: 25 mg/L (≈ 11.5 µM)
- MIC90 [3]: 25 mg/L (≈ 11.5 µM)
- MIC50 [4]: 200 mg/L (≈ 91.7 µM)
- MIC90 [4]: 200 mg/L (≈ 91.7 µM)
- MIC50 [5]: 50 mg/L (≈ 22.9 µM)
- MIC90 [5]: 50 mg/L (≈ 22.9 µM)

SMILES: CCCC[C@H](NC(=O)[C@H](CCCNC(=N)N)NC(=O)[C@H](Cc1c[nH]c2ccccc12)NC(=O)[C@H](CCC(N)=O)NC(=O)[C@H](Cc1c[nH]c2ccccc12)NC(=O)[C@H](CCCNC(=N)N)NC(=O)[C@H](CCCNC(=N)N)NC(=O)[C@H](CS)NC(=O)[C@H](CCCCN)NC(=O)[C@H](Cc1ccccc1)NC(=O)[C@@H](N)CCCC)C(=O)N[C@@H](CCCCN)C(=O)N[C@@H](CCCCN)C(=O)N[C@@H](CC(C)C)C(=O)NCC(N)=O [LFacinB[Nle^1,11]-NH2] (H-[Nle]FKCRRWQWR[Nle]KKLG-NH2; N-terminus assumed)
- MIC50 [1]: > 100 mg/L
- MIC90 [1]: > 100 mg/L
- MIC50 [4]: > 100 mg/L
- MIC90 [4]: > 100 mg/L
- MIC50 [5]: 100 mg/L (≈ 49.6 µM)
- MIC90 [5]: 100 mg/L (≈ 49.6 µM)
- MIC50 [6]: > 100 mg/L
- MIC90 [6]: > 100 mg/L
- MIC50 [7]: 50 mg/L (≈ 24.8 µM)
- MIC90 [7]: > 100 mg/L
